# From patent US20190262371A1, “METHODS AND COMPOSITION FOR THE TREATMENT OF RNA VIRAL INFECTIONS” (The Regents of the University of California, priority 2016, published 2019)
# Tested on: ZIKV (MR766)
# Test: Inhibitor activity analysis: effect of methyltransferase inhibitors on ZIKV replication in a microglial cell line (supernatant one-step qRT-PCR)
# Assay type: cell-based, ZIKA virus
# Settings: assay not given, presumably ZIKV inhibition, 10 μM, MOI 1, 24 h / 48 h, normalized to DMSO
# Description: FIG. 7. Microglial cell-line was plated 1×10^6 cells per well in 24 well plate and cultured for 24 h. Cell were then treated in triplicate with series of methyltransferase inhibitors ([…]) for one hour followed by infection with ZIKV (MR766, MOI: 1) and changed the fresh medium after 2 hrs of ZIKV infection and re-added the drugs. After 24 h of the infection, we collected the supernatant and did one-step qRT-PCR. Fold inhibition of ZIKV infection was normalized from DMSO control.
# FIG. 8. Microglial cell-line was plated 1×10^6 cells per well in 24 well plate and cultured for 24 h. […]
# Effects of methyltransferase inhibitors on ZIKV replication was monitored using previously published methods (Dang, J., Tiwari, S. K., Lichinchi, G., Qin, Y., Patil, V. S., Eroshkin, A. M., and Rana, T. M. (2016); Zika Virus Depletes Neural Progenitors in Human Cerebral Organoids through Activation of the Innate Immune Receptor TLR3. Cell Stem Cell 19, 258-265; Lichinchi, G., Zhao, B. S., Wu, Y., Lu, Z., Qin, Y., He, C., and Rana, T. M. (2016). Dynamics of Human and Viral RNA Methylation during Zika Virus Infection. Cell Host Microbe 20, 666-673; Tiwari, S. K., Dang, J., Qin, Y., Lichinchi, G., Bansal, V., and Rana, T. M. (2017), which are incorporated herein in their entirety for all purposes). […]
smiles,measurement,value
Nc1ncnc2c1ncn2C1OC(CNCCn2c3ccccc3c3ccccc32)C(O)C1O (stereo not shown) [TR-H-08],activity (found to be an active compound),active
